According to the CheMixHub viscosity set:
Where “and” joins values, the source holds several entries; their conditions need not be identical. Equal values may be shown once.

Test: xn = mol fraction of the nth substance listed

O=S=O + CCOCC
298.15 K, 101 kPa
Conditions | viscosity [mPa·s]
x1 = 0.0574 | 0.2303
x1 = 0.0951 | 0.2353
x1 = 0.1329 | 0.24
x1 = 0.1607 | 0.2443

O=C(Cc1ccccc1)c1ccccc1 + CCCCCOC(C)=O
298.15 K, 101 kPa
Conditions | viscosity [mPa·s]
x1 = 0.0268 | 0.8294
x1 = 0.0344 | 0.849

CC(C)Cc1ccccc1 + COC(=O)c1ccccc1
viscosity [mPa·s], 101 kPa
Conditions | x2 = 0.1256 | x2 = 0.2427 | x2 = 0.355 | x2 = 0.4602 | x2 = 0.5572 | x2 = 0.6486 | x2 = 0.7454 | x2 = 0.8333 | x2 = 0.9166
303.15 K | 0.957 | 1.001 | 1.057 | 1.127 | 1.195 | 1.274 | 1.363 | 1.467 | 1.555
313.15 K | 0.824 | 0.862 | 0.908 | 0.961 | 1.011 | 1.075 | 1.145 | 1.215 | 1.288

CCCCCC(CC)NC(=O)Nc1ccc(C)c(NC(=O)NC(CC)CCCCC)c1 (stereo not drawn) + CCCCC
Conditions | viscosity [mPa·s]
293.15 K, 100 kPa, x1 = 0.0002 | 86

CCCCCC[N+]1(C)CCOCC1.[Br-] + OCCOCCOCCO
100 kPa, x1 = 0.2005
Conditions | viscosity [mPa·s]
293.15 K | 111.2
298.15 K | 83.7
303.15 K | 64.32
308.15 K | 50.24
313.15 K | 40.12
318.15 K | 32.53
323.15 K | 26.79

OCCCCO + CN(C)C=O
308.15 K, 101 kPa
Conditions | viscosity [mPa·s]
x1 = 0.0565 | 0.762
x1 = 0.101 | 0.904
x1 = 0.1892 | 1.222
x1 = 0.2806 | 1.761
x1 = 0.3915 | 2.578
x1 = 0.4722 | 3.596
x1 = 0.5803 | 6.998
x1 = 0.6682 | 10.85
x1 = 0.7755 | 17.92
x1 = 0.8845 | 28.4
x1 = 0.9487 | 37.31

NC(=O)c1ccccc1 + c1ccncc1
298.15 K, 101 kPa
Conditions | viscosity [mPa·s]
x1 = 0.0343 | 1.055
x1 = 0.08504 | 1.331

CC(C)CN + COCCO
298.15 K, 101 kPa
Conditions | viscosity [mPa·s]
x2 = 0.05 | 0.614
x2 = 0.1001 | 0.666
x2 = 0.1511 | 0.719
x2 = 0.2 | 0.788
x2 = 0.2513 | 0.869
x2 = 0.2996 | 0.95
x2 = 0.3519 | 1.043
x2 = 0.4002 | 1.132
x2 = 0.4491 | 1.221
x2 = 0.4989 | 1.308
x2 = 0.5501 | 1.387
x2 = 0.6 | 1.457
x2 = 0.6521 | 1.52
x2 = 0.6999 | 1.567
x2 = 0.7502 | 1.608
x2 = 0.8 | 1.632
x2 = 0.8512 | 1.643
x2 = 0.9 | 1.641
x2 = 0.9492 | 1.609

CCC(C)CC + CCCCCCCCCCCCCCCC
298 K, 101.33 kPa
Conditions | viscosity [mPa·s]
x1 = 0.1071 | 2.635
x1 = 0.2084 | 2.224
x1 = 0.3095 | 1.87
x1 = 0.4069 | 1.554
x1 = 0.5054 | 1.274
x1 = 0.6034 | 1.022
x1 = 0.7044 | 0.7813
x1 = 0.8037 | 0.5939
x1 = 0.902 | 0.4194

O[C@H]1[C@H](O)[C@@H](O)[C@H](O)[C@@H](O)[C@H]1O + O
viscosity
Conditions | x1 = 0.0018 | x1 = 0.002 | x1 = 0.00359 | x1 = 0.004 | x1 = 0.005 | x1 = 0.00538 | x1 = 0.00715 | x1 = 0.00893
293.15 K, 101 kPa | 1.051 mPa·s | – | 1.102 mPa·s | – | – | 1.154 mPa·s | 1.23 mPa·s | 1.281 mPa·s
293.15 K, 101.3 kPa | – | 1.035 mPa·s | – | 1.086 mPa·s | 1.138 mPa·s | – | – | –
298.15 K, 101.3 kPa | – | 0.945 mPa·s | – | 0.986 mPa·s | 1.006 mPa·s | – | – | –
303.15 K, 101 kPa | 0.836 mPa·s | – | 0.875 mPa·s | – | – | 0.911 mPa·s | 0.97 mPa·s | 1.001 mPa·s and 1.011 mPa·s
303.15 K, 101.3 kPa | – | 0.821 mPa·s | – | 0.861 mPa·s | 0.899 mPa·s | – | – | –
313.15 K, 101 kPa | 0.685 mPa·s | – | 0.728 mPa·s | – | – | 0.742 mPa·s | 0.789 mPa·s | 0.82 mPa·s
323.15 K, 101 kPa | 0.577 mPa·s | – | 0.601 mPa·s | – | – | 0.618 mPa·s | 0.658 mPa·s | 0.684 mPa·s

CCCCCCCCCCCCCCC + CCCCCCCCCCO
100 kPa, x1 = 0.2565
Conditions | viscosity [mPa·s]
298.2 K | 6.68
308.2 K | 4.73
318.2 K | 3.47

Cc1cc(C)cc(C)c1 + CCO
293.15 K, 101 kPa
Conditions | viscosity [mPa·s]
x2 = 0.2 | 0.718
x2 = 0.4 | 0.764
x2 = 0.6 | 0.854
x2 = 0.8 | 0.983

O=C1CCCN1 + OCCO
101.33 kPa
Conditions | viscosity [mPa·s]
298.15 K, x1 = 0.04482 | 16.51
298.15 K, x1 = 0.1032 | 16.1
298.15 K, x1 = 0.2107 | 15.53
298.15 K, x1 = 0.3059 | 15.19
298.15 K, x1 = 0.3998 | 14.98
298.15 K, x1 = 0.4988 | 14.85
298.15 K, x1 = 0.6042 | 14.73
298.15 K, x1 = 0.6866 | 14.62
298.15 K, x1 = 0.7865 | 14.39
298.15 K, x1 = 0.9015 | 13.95
298.15 K, x1 = 0.9371 | 13.76
308.15 K, x1 = 0.05148 | 11.22
308.15 K, x1 = 0.2079 | 10.64
308.15 K, x1 = 0.3048 | 10.4
308.15 K, x1 = 0.3932 | 10.24
308.15 K, x1 = 0.4992 | 10.12
308.15 K, x1 = 0.9078 | 9.505
308.15 K, x1 = 0.952 | 9.341
318.15 K, x1 = 0.04423 | 7.91
318.15 K, x1 = 0.1016 | 7.746
318.15 K, x1 = 0.2104 | 7.505
318.15 K, x1 = 0.318 | 7.342
318.15 K, x1 = 0.3931 | 7.265
318.15 K, x1 = 0.4945 | 7.195
318.15 K, x1 = 0.592 | 7.15
318.15 K, x1 = 0.7035 | 7.089
318.15 K, x1 = 0.7949 | 7.002
318.15 K, x1 = 0.8888 | 6.855
318.15 K, x1 = 0.9417 | 6.74

OCCCCO + C[N+](C)(C)CCO.[Cl-]
viscosity [mPa·s]
Conditions | 293.15 K | 298.15 K | 298.2 K | 303.15 K | 308.15 K | 308.2 K | 313.15 K | 318.15 K | 318.2 K | 323.15 K
101 kPa, x2 = 0.2 | – | 70.2 | – | – | – | – | – | 32.3 | – | –
101.3 kPa, x1 = 0.7519 | 112.9 | 87.4 | – | 70.16 | 59.73 | – | 47.89 | 39.53 | – | 33.04
101.3 kPa, x1 = 0.8 | 99.69 | 78.77 | – | 62.96 | 51.08 | – | 41.67 | 34.51 | – | 28.9
101.3 kPa, x1 = 0.8334 | 93.6 | 74.9 | – | 59.28 | 48 | – | 39.41 | 32.5 | – | 27.36
101.3 kPa, x1 = 0.8575 | 91.44 | 72.28 | – | 57.86 | 46.72 | – | 38.31 | 31.67 | – | 26.47
101.3 kPa, x2 = 0.1672 | – | – | 75.5 | – | – | 58.2 | – | – | 42.8 | –
101.3 kPa, x2 = 0.2 | – | – | – | 54.75 | 44.49 | – | 36.66 | 30.4 | – | 25.74
101.3 kPa, x2 = 0.25 | – | – | – | 60.64 | 49.3 | – | 40.55 | 33.94 | – | 28.53

Cc1cc(C)cc(C)c1 + c1ccccc1
viscosity [mPa·s], 101 kPa
Conditions | x1 = 0.0992 | x1 = 0.1997 | x1 = 0.3013 | x1 = 0.4024 | x1 = 0.504 | x1 = 0.5997 | x1 = 0.7035 | x1 = 0.7997 | x1 = 0.9018
303 K | 0.5455 | 0.5407 | 0.5421 | 0.546 | 0.5511 | 0.5579 | 0.5714 | 0.5833 | 0.596
313 K | 0.4826 | 0.4807 | 0.4822 | 0.4861 | 0.4905 | 0.4999 | 0.5097 | 0.5201 | 0.5336
323 K | 0.4308 | 0.4229 | 0.4325 | 0.4374 | 0.439 | 0.4507 | 0.4587 | 0.4681 | 0.4791
